Experimental data from patent US20240327425A1, “KRAS G12D INHIBITOR AND USE THEREOF” (SHANGHAI DE NOVO PHARMATECH CO., LTD., priority 2021, published 2024).
Values belong to the compound of their own block, whether it stands above or below them.

Columns and labels:
[1] = molecular target: Human KRAS G12D His-tagged protein (Homo sapiens (Human), UniProt P01116, G12D); experiment: KRAS G12D binding assay (TR-FRET); conditions: GDP 20 nM, GTP-Red
Method: The binding ability of the compound to KRAS G12D protein was detected by TR-FRET method, and the inhibitory activity of the compound on KRAS G12D protein was evaluated. Human KRAS G12D His-tagged (Cisbio, 63ADK000CB27PEG) protein was 100-fold diluted with PPI Eu detection buffer (Cisbio, 61DB9RBF), then 5 μL of which was added to a 384-well plate and centrifuged at 2000 rpm for 40 seconds. A 10 mM concentrated stock solution of the test compound was prepared with dimethyl sulfoxide, 3-fold serially diluted, then diluted to make a working solution (0.5% DMSO) with PPI Eu detection buffer, added to a 384-well plate at 5 μL/well, with the control group added with 0.5% dimethyl sulfoxide and the highest concentration of the test compound at 10 μM, and centrifuged at 2000 rpm for 40 seconds. An 80 nM GDP standard working solution (Cisbio, 63ADK000CB27PEG) was prepared with PPI Eu detection buffer and added to a 384-well plate at 5 μL/well, with the final concentration of GDP standard working solution at 20 nM. The plate was centrifuged at 2000 rpm for 40 seconds and reacted at room temperature for 30 minutes. 1×6His Eu cryptate antibody and GTP-Red reagent (Cisbio, 63ADK000CB27PEG) were prepared with PPI Eu detection buffer, mixed in a volume ratio of 1:1, 5 μL of which was then added to a 384-well plate, centrifuged at 2000 rpm for 40 seconds, and incubated at room temperature for 30 minutes. The fluorescence intensity at 620 nm and 665 nm was detected by a microplate reader, and the inhibitory activity of the compound on KRAS G12D protein was obtained by fitting a four-parameter equation.

[2] = system: phosphorylation level of ERK1/2 in ASPC-1 human pancreatic cancer cells; experiment: pERK cell level assay (PHOSPHO-ERK1/2 HTRF kit); type: cell-based; conditions: Aspc-1 cells, 4 hours incubation
Method: In this experiment, the phosphorylation level of ERK1/2 in AGS human gastric cancer cells or ASPC-1 human pancreatic cancer cells was detected using PHOSPHO-ERK1/2 (THR202/TYR 204) (Cisibo, 64ERKPEH) kit, and the inhibitory effect of the compounds on KRAS G12D was investigated based on the phosphorylation level of ERK1/2.
On day 1, the density of AGS cell (ATCC) suspension was adjusted to 2.1×10^5 cells/mL, then the suspension was spread in a 96-well plate at 95 μL/well so that there were 2×10^4 cells per well, and the cell culture plate was incubated in a 37° C., 5% CO2 incubator for overnight. On day 2, the compound was serially diluted with 100% dimethyl sulfoxide, and then further diluted with a complete culture medium (RPMI-1640+10% FBS+1% PS) to make a working solution of the compound, which was added to a 96-well cell culture plate at 5 μL/well, and incubated in a 37° C., 5% CO2 incubator for 4 hours. After the incubation was completed, the culture medium was discarded, then 1× lysis buffer was added thereto at 50 μL/well, and the plate was shaken at room temperature for 30 minutes. 16 μL of lysis buffer was added to a white 384-well shallow well plate, then 4 μL of pre-formulated antibody mixture was added thereto, and the plate was sealed with microplate sealer and incubated at room temperature for overnight. On day 3, detection was performed on a TECAN M1000 Pro microplate reader using the HTRF setting, and the IC50 value of the compound was calculated.

[3] = system: ASPC-1 human pancreatic cancer cells; experiment: Cell proliferation assay (Cell Titer-Glo), ASPC-1; type: cell-based
Method: (§1) On day 1, AGS human gastric cancer cells, ASPC-1 human pancreatic cancer cells, or GP2D human colon cancer cells (Nanjing Cobioer Biosciences Co. Ltd.) in the logarithmic growth phase were taken, digested with an appropriate amount of trypsin, formulated into a single cell suspension using RPMI 1640 (Gibco) medium containing 10% fetal bovine serum and 1% penicillin-streptomycin, counted to adjust the cell density, inoculated in a 96-well plate at 95 μL/well so that there were 3000 cells per well, and then the cell culture plate was incubated in a 37° C., 5% CO2 incubator for overnight. On day 2, a 10 mM concentrated stock solution of KRAS G12D inhibitor was 3-fold serially diluted with dimethyl sulfoxide solution, and then diluted with AGS complete culture medium to make a working solution, which was added to a cell culture plate at 5 μL/well so that the compound had the highest concentration of 10 μM and the lowest concentration of 0.0015 μM, and the control group was 0.5% dimethyl sulfoxide. The cell culture plate was briefly centrifuged and then incubated in a CO2 incubator for 72 hours. On day 5, the cell culture plate was taken out, added with Cell Titer-Glo (Promega) detection reagent in each well, incubated in the dark for 10 minutes, and then luminescence was detected using a microplate reader (Tecan, Infinite M1000 Pro). Data were analyzed using Graphpad software, and curve fitting was performed with four-parameter equation and the IC50 value of the inhibitor was calculated.

[4] = system: GP2D human colon cancer cells; experiment: Cell proliferation assay (Cell Titer-Glo), GP2D; type: cell-based; conditions: 72 hours
Method: as §1

[5] = system: GP2D human colon cancer cells subcutaneous xenograft tumor; experiment: In vivo pharmacodynamic experiment of subcutaneous xenograft tumor model in mice of GP2D human colon cancer cells; conditions: BALB/c nude mice; for Tumor volume (11 days, mm^3): 11 days (at grouping)
Method: Cell culture: GP2D human colon cancer cells were maintained in monolayer culture in DMEM culture medium containing 10% fetal bovine serum in a constant temperature incubator containing 5% CO2 at 37° C. Tumor cells were passaged twice a week. Cells in the exponential growth phase were harvested and counted for inoculation.
Experimental animals: BALB/c nude mice, 6 to 8 weeks, 18 to 22 g, purchased from Jiangsu GemPharmatech Co. Ltd.
Experimental method: GP2D cell line ([…]) was inoculated subcutaneously on the right back of experimental mice. The inoculation volume of each mouse was 0.1 mL. The growth of the tumor was observed regularly. When the tumor grew to about 150 mm^3, the mice were randomly grouped according to the tumor size and body weight, and the drug was administrated according to the administration plan shown in Table 1. The body weight and tumor size were measured twice a week throughout the experiment.
tumor volume (mm^3)=0.5×(tumor long diameter×tumor short diameter^2). Tumor size calculation formula: […]

[6] = Homo sapiens, ASPC1, pERK1/2 (THR202/TYR204)
[7] = Homo sapiens, ASPC1, Aspc-1, 72 hours

Sequence of Human KRAS G12D His-tagged protein (P01116-2 other isoform, or with tags, fused parts or gaps G12D): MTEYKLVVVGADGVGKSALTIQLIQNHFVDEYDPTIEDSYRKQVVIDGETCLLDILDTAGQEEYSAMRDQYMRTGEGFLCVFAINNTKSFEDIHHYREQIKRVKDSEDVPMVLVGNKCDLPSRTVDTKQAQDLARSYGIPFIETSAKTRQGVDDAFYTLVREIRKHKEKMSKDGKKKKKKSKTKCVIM

SMILES: Nc1nc2c(-c3c(Cl)c4c5c(nc(OC[C@@]67CCCN6C[C@H](F)C7)nc5c3F)N3C[C@H]5CC[C@H](N5)[C@H]3CO4)cccc2s1 (single isomer, unassigned) [Compound I-12-2]
IC50 [1]: 3.01 nM | IC50 [2, 6]: 8.23 nM

SMILES: [2H]C1([2H])CC[C@@]2(COc3nc4c5c(c(Cl)c(-c6cccc7sc(N)c(C#N)c67)c(F)c5n3)OC[C@@H]3[C@@H]5CC[C@H](CN43)N5)C[C@@H](F)CN12 (single isomer, unassigned) [Compound I-20-2]
IC50 [1]: 1.89 nM | IC50 [3, 7]: 6.49 nM

SMILES: [2H]C([2H])(Oc1nc2c3c(c(Cl)c(-c4cccc5sc(N)c(C#N)c45)c(F)c3n1)OC[C@@H]1[C@@H]3CC[C@H](CN21)N3)[C@@]12CCCN1C[C@H](F)C2 (single isomer, unassigned) [Compound I-24-2]
IC50 [1]: 1.75 nM | IC50 [3, 7]: 6.66 nM

SMILES: [2H]C1([2H])CC[C@@]2(C([2H])([2H])Oc3nc4c5c(c(Cl)c(-c6cccc7sc(N)c(C#N)c67)c(F)c5n3)OC[C@@H]3[C@@H]5CC[C@H](CN43)N5)C[C@@H](F)CN12 (single isomer, unassigned) [Compound I-27-2]
IC50 ([4]; Homo sapiens): 0.133 nM | IC50 [1]: 1.4 nM

SMILES: N#Cc1c(N)sc2cccc(-c3c(Cl)c4c5c(nc(OC[C@@]67CCCN6C[C@H](F)C7)nc5c3F)N3C[C@H]5CC[C@H](N5)[C@H]3CO4)c12 [Compound I-7, 2-amino-4-((5aS,6S,9R)-3-chloro-1-fluoro-13-(((2R,7aS)-2-fluorohexahydro-1H-pyrrolizin-7a-yl)methoxy)-5a,6,7,8,9,10-hexahydro-5H-6,9-epiminoazepino[2′,1′:3,4][1,4]oxazepino[5,6,7-de]quinazolin-2-yl)benzo[b]thiophene-3-carbonitrile ditrifluoroacetate]
IC50 [1]: 6.59 nM | IC50 ([3]; Aspc-1, 72 hours): 5.53 nM | IC50 ([2]; pERK1/2 (THR202/TYR204)): 1.59 nM

SMILES: N#Cc1c(N)sc2c(F)ccc(-c3c(Cl)c4c5c(nc(OC[C@@]67CCCN6C[C@H](F)C7)nc5c3F)N3C[C@H]5CC[C@H](N5)[C@H]3CO4)c12 [Compound I-11, 2-amino-4-((5aS,6S,9R)-3-chloro-1-fluoro-13-(((2R,7aS)-2-fluorohexahydro-1H-pyrrolizin-7a-yl)methoxy)-5a,6,7,8,9,10-hexahydro-5H-6,9-epiminoazepino[2′,1′:3,4][1,4]oxazepino[5,6,7-de]quinazolin-2-yl)-7-fluorobenzo[b]thiophene-3-carbonitrile]
IC50 ([4]; Homo sapiens): 0.336 nM | IC50 [1]: 11.2 nM | IC50 [3, 7]: 12.6 nM | IC50 [2, 6]: 1.01 nM

IC50 [4]: 0.124 nM | IC50 [1]: 8.52 nM | IC50 ([3]; Aspc-1, 72 hours): 6.76 nM | IC50 ([2]; pERK1/2 (THR202/TYR204)): 1.29 nM
SMILES: N#Cc1c(N)sc2ccc(F)c(-c3c(Cl)c4c5c(nc(OC[C@@]67CCCN6C[C@H](F)C7)nc5c3F)N3C[C@H]5CC[C@H](N5)[C@H]3CO4)c12 [Compound I-14, 2-amino-4-((5aS,6S,9R)-3-chloro-1-fluoro-13-(((2R,7aS)-2-fluorohexahydro-1H-pyrrolizin-7a-yl)methoxy)-5a,6,7,8,9,10-hexahydro-5H-6,9-epiminoazepino[2′,1′:3,4][1,4]oxazepino[5,6,7-de]quinazolin-2-yl)-5-fluorobenzo[b]thiophene-3-carbonitrile ditrifluoroacetate]

IC50 [4]: 0.497 nM | IC50 [1]: 7.77 nM | IC50 ([3]; Aspc-1, 72 hours): 31.9 nM | IC50 ([2]; pERK1/2 (THR202/TYR204)): 5.58 nM
SMILES: CC(Oc1nc2c3c(c(Cl)c(-c4cccc5sc(N)c(C#N)c45)c(F)c3n1)OC[C@@H]1[C@@H]3CC[C@H](CN21)N3)[C@@]12CCCN1C[C@H](F)C2 (stereo partly drawn) [Compound I-17, 2-amino-4-((5aS,6S,9R)-3-chloro-1-fluoro-13-(1-((2R,7aS)-2-fluorohexahydro-1H-pyrrolizin-7a-yl)ethoxy)-5a,6,7,8,9,10-hexahydro-5H-6,9-epiminoazepino[2′,1′:3,4][1,4]oxazepino[5,6,7-de]quinazolin-2-yl)benzo[b]thiophene-3-carbonitrile ditrifluoroacetate]

SMILES: Cc1ccc2sc(N)c(C#N)c2c1-c1c(Cl)c2c3c(nc(OC[C@@]45CCCN4C[C@H](F)C5)nc3c1F)N1C[C@H]3CC[C@H](N3)[C@H]1CO2 [Compound I-21, 2-amino-4-((5aS,6S,9R)-3-chloro-1-fluoro-13-(1-((2R,7aS)-2-fluorohexahydro-1H-pyrrolizin-7a-yl)methoxy)-5a,6,7,8,9,10-hexahydro-5H-6,9-epiminoazepino[2′,1′:3,4][1,4]oxazepino[5,6,7-de]quinazolin-2-yl)-5-methylbenzo[b]thiophene-3-carbonitrile ditrifluoroacetate]
IC50 [1]: 9.76 nM | IC50 [3, 7]: 16.9 nM

SMILES: N#Cc1c(N)sc2c1C(c1c(Cl)c3c4c(nc(OC[C@@]56CCCN5C[C@H](F)C6)nc4c1F)N1C[C@H]4CC[C@H](N4)[C@H]1CO3)=CCC2 [Compound I-25, 2-amino-4-((5aS,6S,9R)-3-chloro-1-fluoro-13-(((2R,7aS)-2-fluorohexahydro-1H-pyrrolizin-7a-yl)methoxy)-5a,6,7,8,9,10-hexahydro-5H-6,9-epiminoazepino[2′,1′:3,4][1,4]oxazepino[5,6,7-de]quinazolin-2-yl)-6,7-dihydrobenzo[b]thiophene-3-carbonitrile ditrifluoroacetate]
IC50 [1]: 12 nM | IC50 [3, 7]: 25.8 nM

SMILES: C#Cc1c(F)ccc2cc(O)cc(-c3ncc4c(N5CC6CCC(C5)N6)nc(OC[C@@]56CCCN5C[C@H](F)C6)nc4c3F)c12 [Ref. A, MRTX1133, reference compound]
Tumor volume (11 days, mm^3) ([5]; 3 mg/kg i.p. twice a day): 139.25 ± 17.31 mm^3 | Tumor volume (21 days, mm^3) ([5]; 3 mg/kg i.p. twice a day): 137.35 ± 18.79 mm^3 | T/C (%) ([5]; 3 mg/kg i.p. twice a day): 30.3% | Tumor regression rate (%) ([5]; 3 mg/kg i.p. twice a day): −1.4% | Tumor volume (11 days, mm^3) ([5]; 10 mg/kg i.p. twice a day): 139.90 ± 20.43 mm^3 | Tumor volume (21 days, mm^3) ([5]; 10 mg/kg i.p. twice a day): 79.77 ± 13.97 mm^3 | T/C (%) ([5]; 10 mg/kg i.p. twice a day): 17.6% | Tumor regression rate (%) ([5]; 10 mg/kg i.p. twice a day): −43.0%
